The values that follow come from article PMC7119052 (Bioorganic & Medicinal Chemistry, 2005).

Molecules are shown by their SMILES.

For test [1], the target named is T1, CypA (Homo sapiens, UniProt P62937). Put plainly: biochemical.
In test [2] the target is T1, CypA. As to the kind of experiment: SPR-based binding affinity assay. The following applies: pH 7.4.
In test [3] the test system is mouse spleen cells induced by Con A. As to the kind of experiment: Proliferation of mouse spleen cells induced by Con A. Format: cell-based. The following applies: 72 h, read-out: Inhibitory rate (%).

In general, % inhibition refers to the change of the read-out against control, counted positive when it falls. A high value points to a response far below the control. As a reminder, the Kd is the free concentration of one partner at which half of the binding sites on the other are occupied at equilibrium, for simple one-to-one binding. A high value points to weaker binding. Broadly, the IC50 is the concentration needed to halve the response being measured. The low end stands for higher potency, the high end for lower potency.

T1 sequence (P62937 whole entry): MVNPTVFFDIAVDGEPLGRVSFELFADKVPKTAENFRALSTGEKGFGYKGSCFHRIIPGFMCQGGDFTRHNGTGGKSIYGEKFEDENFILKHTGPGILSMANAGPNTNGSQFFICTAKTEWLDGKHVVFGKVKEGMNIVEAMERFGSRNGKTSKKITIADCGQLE

`Cc1noc(NS(=O)(=O)c2ccc(NC(=O)c3cc(-c4cccc(F)c4)nc4ccccc34)cc2)c1C` [Compound 16a, 4-(2-(3-Fluorophenyl)-quinoline-4-carboxamido)-N-(3,4-dimethyl-isoxazol-5-yl) benzenesulfonamide]: the “% inhibition at 10 μM” value on CypA [1] amounted to 18.0%. The same compound returned a Kd at CypA [2] of 10.2 µM. Take `Cc1noc(NS(=O)(=O)c2ccc(NC(=O)c3cc(-c4ccc(Br)cc4)nc4ccccc34)cc2)c1C` [Compound 16c, 4-(2-(4-Bromophenyl)-quinoline-4-carboxamido)-N-(3,4-dimethyl-isoxazol-5-yl) benzenesulfonamide]: the “% inhibition at 10 μM” value on CypA [1] is 10.0%. Moreover, the Kd at CypA [2] is 4.11 µM. For `Cc1noc(NS(=O)(=O)c2ccc(NC(=O)c3cc(-c4ccccc4Br)nc4ccccc34)cc2)c1C` [Compound 16d, 4-(2-(2-Bromophenyl)-quinoline-4-carboxamido)-N-(3,4-dimethyl-isoxazol-5-yl) benzenesulfonamide] the same measures were 15.0% and 223 µM. For `Cc1noc(NS(=O)(=O)c2ccc(NC(=O)c3cc(-c4ccncc4)nc4ccccc34)cc2)c1C` [Compound 16e, 4-(2-Pyridin-4-yl-quinoline-4-carboxamido)-N-(3,4-dimethyl-isoxazol-5-yl) benzenesulfonamide] the same measures were 40.0% and 10.6 µM. On to `Cc1noc(NS(=O)(=O)c2ccc(NC(=O)c3cc(-c4cccs4)nc4ccccc34)cc2)c1C` [Compound 16f, 4-(2-Thiophen-2-yl-quinoline-4-carboxamido)-N-(3,4-dimethyl-isoxazol-5-yl) benzenesulfonamide], for which the “% inhibition at 10 μM” value on CypA [1] was determined as 30.0%. In addition, binding at CypA [2] was put at a Kd of 91.3 µM. `Cc1noc(NS(=O)(=O)c2ccc(NC(=O)c3cc(C4CCCCC4)nc4ccccc34)cc2)c1C` [Compound 16g, 4-(2-Cyclohexanyl-quinoline-4-carboxamido)-N-(3,4-dimethyl-isoxazol-5-yl) benzenesulfonamide] showed a Kd on CypA [2] of 1.79 µM. `Cc1noc(NS(=O)(=O)c2ccc(NC(=O)c3cc(-c4cccc(Br)c4)nc4ccc(F)cc34)cc2)c1C` [Compound 16i, 4-(2-(3-Bromophenyl)-6-fluoro-quinoline-4-carboxamido)-N-(3,4-dimethyl-isoxazol-5-yl) benzenesulfonamide]: on CypA [1], the “% inhibition at 10 μM” value was 32.0%. The Kd on CypA [2] was determined as 2.25 µM.

Turning to `O=C(Nc1ccc(S(=O)(=O)Nc2cnc3ccccc3n2)cc1)c1cc(-c2cccc(Br)c2)nc2ccccc12` [Compound 16j, 4-(2-(3-Bromophenyl)-quinoline-4-carboxamido)-N-quinoxalin-2-yl benzenesulfonamide], the “% inhibition at 10 μM” value on CypA [1] came to 36.0%. This compound also returned a Kd at CypA [2] of 3.13 µM. Turning to `Cc1noc(NS(=O)(=O)c2ccc(NC(=O)c3ccnc(-c4ccc(Br)cc4)c3)cc2)c1C` [Compound 16l, 4-(2-(4-Bromophenyl)-pyridine-4-carboxamido)-N-(3,4-dimethyl-isoxazol-5-yl) benzenesulfonamide], at CypA [2], the Kd turned out to be 89.5 µM. That is a double-digit micromolar value.

In turn, `Cc1noc(NS(=O)(=O)c2ccc(NC(=O)c3ccnc(-c4ccccc4)c3)cc2)c1C` [Compound 16m, 4-(2-Phenyl-pyridine-4-carboxamido)-N-(3,4-dimethyl-isoxazol-5-yl) benzenesulfonamide] showed a Kd on CypA [2] of 14.5 µM. `Cc1noc(NS(=O)(=O)c2ccc(NC(=O)c3ccnc(-c4ccc(Cl)cc4)c3)cc2)c1C` [Compound 16n, 4-(2-(4-Chlorophenyl)-pyridine-4-carboxamido)-N-(3,4-dimethyl-isoxazol-5-yl) benzenesulfonamide] returned a Kd at CypA [2] of 1.86 µM. Take `Cc1noc(NS(=O)(=O)c2ccc(NC(=O)c3ccnc(-c4ccc(F)cc4)c3)cc2)c1C` [Compound 16o, 4-(2-(4-Fluorophenyl)-pyridine-4-carboxamido)-N-(3,4-dimethyl-isoxazol-5-yl) benzenesulfonamide]: the “% inhibition at 10 μM” value on CypA [1] is 26.0%. At CypA [2], this compound came in with a Kd of 42.4 µM. At CypA [2], `Cc1ccccc1-c1cc(C(=O)Nc2ccc(S(=O)(=O)Nc3onc(C)c3C)cc2)ccn1` [Compound 16p, 4-(2-(2-Methylphenyl)-pyridine-4-carboxamido)-N-(3,4-dimethyl-isoxazol-5-yl) benzenesulfonamide] gave a Kd of 7.61 µM. On the same count and under the same terms, for `Cc1ccnc(NS(=O)(=O)c2ccc(NC(=O)c3ccnc(-c4ccccc4C)c3)cc2)n1` [Compound 16q, 4-(2-(2-Methylphenyl)-pyridine-4-carboxamido)-N-(4-methyl-pyrimidin-2-yl) benzenesulfonamide] the value was 340 µM; for `O=C(Cc1ccc(Cl)cc1Cl)Nc1ccc(S(=O)(=O)Nc2cnc3ccccc3n2)cc1` [Compound 17a, 4-(2,4-Dichlorophenylacetamido)-N-quinoxalin-2-yl benzenesulfonamide], 37.7 µM. Regarding `O=C(Nc1ccc(S(=O)(=O)Nc2cnc3ccccc3n2)cc1)c1ccccc1` [Compound 17b, 4-Benzamido-N-quinoxalin-2-yl benzenesulfonamide], the “% inhibition at 10 μM” value at CypA [1] came to 5.6%. Also, at CypA [2], the dissociation constant (Kd) stood at 23.4 µM. For `O=C(CCc1ccccc1)Nc1ccc(S(=O)(=O)Nc2cnc3ccccc3n2)cc1` [Compound 17c, 4-(3-Phenyl-propionamido)-N-quinoxalin-2-yl benzenesulfonamide], the Kd on CypA [2] was 1.06 µM. Same read-out and setting: for `Cc1noc(NS(=O)(=O)c2ccc(NC(=O)Cc3ccc(Cl)cc3)cc2)c1C` [Compound 17d, 4-(4-Chlorophenylacetamido)-N-(3,4-dimethyl-isoxazol-5-yl) benzenesulfonamide] the value was 0.35 µM. As for `COC(=O)c1cc(Cc2ccc(NCc3ccccc3)c(C(=O)OC)c2)ccc1NCc1ccccc1` [Compound 18g, 6,6′-Bis-benzylamino-3,3′-methanediyl-di-benzoic acid dimethyl ester], the IC50 on CypA [1] was determined as 6.23 µM. Also, in test [3], the inhibition at 1 µM is 1.2 ± 6.41%, the inhibition at 10 µM turned out to be 7.46 ± 4.13% and the inhibition at 100 µM was 28.8 ± 3.39%.
